Here are results for eleven molecules from publication PMC8954540, “A New Class of PSMA-617-Based Hybrid Molecules for Preoperative Imaging and Intraoperative Fluorescence Navigation of Prostate Cancer” (Pharmaceuticals, 2022).

Starred links: 1 amine or outer side, 2 acyl side, 3 side chain; linkers in the order of their positions; H or OH if unused. Non-standard residues stand in square brackets, D forms with d. Residues, ends and D or L forms follow the SMILES beside them. *: point of attachment. FITC = O=C1OC2(c3ccc(O)cc3Oc3cc(O)ccc32)c2ccc(NC(=S)*)cc21; DOTA = O=C(O)CN1CCN(CC(=O)O)CCN(CC(=O)*)CCN(CC(=O)O)CC1; X2 = O=C(O)CCC(NC(=O)NC(CCCCN*)C(=O)O)C(=O)O; 2Nal = N[CH](Cc1ccc2ccccc2c1)C(=O)O; X1 = O=C(C1CCC(CN[*:1])CC1)[*:2]

On the set-up of data set [1]: method as in PMID 16194449. As to conditions: free dye; cited from earlier work.
In data set [2] the target is T1, PSMA (Homo sapiens, UniProt Q04609).
T1 construct: LNCaP cells (CRL-1740; ATCC; PSMA-positive); host or cells: LNCaP cells
T1 sequence (Q04609 whole entry): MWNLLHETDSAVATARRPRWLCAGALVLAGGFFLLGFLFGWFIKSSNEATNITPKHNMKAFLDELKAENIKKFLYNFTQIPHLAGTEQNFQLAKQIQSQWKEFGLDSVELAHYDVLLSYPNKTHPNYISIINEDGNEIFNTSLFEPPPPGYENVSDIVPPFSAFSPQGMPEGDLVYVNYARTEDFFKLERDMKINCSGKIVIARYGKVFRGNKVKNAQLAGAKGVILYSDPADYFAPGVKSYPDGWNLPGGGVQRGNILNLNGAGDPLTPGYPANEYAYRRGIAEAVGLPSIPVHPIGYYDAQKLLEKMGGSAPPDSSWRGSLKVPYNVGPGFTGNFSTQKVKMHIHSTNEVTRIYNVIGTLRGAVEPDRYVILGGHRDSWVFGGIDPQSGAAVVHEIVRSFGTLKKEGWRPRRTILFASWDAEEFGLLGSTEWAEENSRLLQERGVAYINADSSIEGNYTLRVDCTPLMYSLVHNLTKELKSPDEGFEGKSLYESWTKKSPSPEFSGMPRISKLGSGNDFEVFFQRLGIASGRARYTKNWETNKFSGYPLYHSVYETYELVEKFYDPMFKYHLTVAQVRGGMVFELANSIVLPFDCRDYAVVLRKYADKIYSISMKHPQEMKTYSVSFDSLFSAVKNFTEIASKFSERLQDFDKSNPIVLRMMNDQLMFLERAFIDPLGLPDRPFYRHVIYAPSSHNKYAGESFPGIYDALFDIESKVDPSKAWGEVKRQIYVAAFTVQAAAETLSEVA
The data set can be described thus: Competitive cell binding assay (radioligand 68Ga-PSMA-10). As to conditions: free ligands, mean ± SD, n = 3; for Ki: Ki=IC50/(1+cradioligand/Kd); for IC50: radioligand 68Ga-PSMA-10, 0.75 nmol/L. Here is the method:
(§1) LNCaP cells (CRL-1740; ATCC; PSMA-positive) and PC-3 cells (CRL-1435; ATCC; PSMA-negative) were cultured in RPMI medium (Thermo Fisher Scientific, Waltham, MA, USA) supplemented with 10% fetal calf serum and 2 mmol/L L-glutamine (all from (Thermo Fisher Scientific, Waltham, MA, USA) ) at 37 °C in humidified air with 5% CO2. Cells were harvested using trypsin-ethylenediaminetetraacetic acid (trypsin-EDTA; 0.25% trypsin, 0.02% EDTA, Invitrogen, Waltham, MA, USA). Cell line authentication was regularly performed. Binding affinities and internalization profiles of the ^68Ga-labeled compounds were determined in competitive cell binding assays and internalization experiments as described previously.

Data set [3] relates to LNCaP cells. The data set can be described thus: Specific cell surface binding and internalization of 68Ga-labeled compounds. In kind it is cell-based. To be noted: 68Ga-labeled compounds; blockage with 500 µmol/L 2-PMPA; mean ± SD, n = 3. Here is the method: as §1
Data set [4] can be described thus: Lipophilicity, logD at pH 7.4 in n-octanol/PBS. In kind it is physicochemical. As to conditions: 68Ga-labeled ligand. Here is the method: The synthesis was performed according to previously published protocols. Details on synthesis and analytical data of the compounds are provided in the Supplementary Materials (Compound Synthesis and Analytical Characterization). […] Using 30% NaOH (Sigma-Aldrich, Darmstadt, Germany) and 10% NaOH (Sigma-Aldrich, Darmstadt, Germany), the pH was adjusted to 3.8. The reaction mixture was incubated at 98 °C for 5–10 min. The radiochemical yield was analyzed by reversed-phase high-performance liquid chromatography (RP-HPLC) or reversed-phase thin-layer chromatography (RP-TLC, 60 RP-18 F254S, Sigma-Aldrich, Darmstadt, Germany) with 0.5 M ammonium acetate/methanol (1:1) as the mobile phase. The lipophilicity of the ^68Ga-labeled compounds was determined using the 2-phase system n-octanol and PBS.

The subject of data set [5] is LNCaP-tumor bearing BALB/c nu/nu mice. To be noted: cited from earlier work; for tumor enhancement after dye conjugation: compared with PSMA-927.
Details of data set [6]: method as in PMID 29752180. As to conditions: twelve weeks after the first dose; cited from earlier work.
On the set-up of data set [7]: method as in PMID 34161051. To be noted: 831 patients; cited from earlier work.
On the set-up of data set [8]: method as in PMID 25883127. To be noted: n-octanol/PBS; cited from earlier work.
The subject of data set [9] is LNCaP cells. Details: method as in PMID 26878194. To be noted: cited from earlier work.

For the molecule `CC1(C)C(=CC=C2CCCC(C=CC3=[N+](CCCCCC(=O)[O-])c4ccc(S(=O)(=O)[O-])cc4C3(C)C)=C2Oc2ccc(S(=O)(=O)[O-])cc2)N(CCCCS(=O)(=O)[O-])c2ccc(S(=O)(=O)[O-])cc21.[Na+].[Na+].[Na+].[Na+]` [IRDye800CW], in [1], the absorption maximum is given as 775 nm and the emission maximum is listed as 796 nm.

Regarding `O=C(O)CCC(NC(=O)NC(CCCCNC(=O)C(Cc1ccc2ccccc2c1)NC(=O)C1CCC(CNC(=O)C(CCCCNC(=S)Nc2ccc3c(c2)C(=O)OC32c3ccc(O)cc3Oc3cc(O)ccc32)NC(=O)C(CCC(=O)O)NC(=O)CN2CCN(CC(=O)O)CCN(CC(=O)O)CCN(CC(=O)O)CC2)CC1)C(=O)O)C(=O)O` (stereo not drawn) [PSMA-922, Glu-urea-Lys-2-Nal-Chx-Lys(Fluorescein)-E1-DOTA], in [2], the Ki (in general, a dissociation constant, usually derived from enzyme kinetics or from competition with a known ligand) turned out to be 5.78 ± 1.32 nM and the IC50 – broadly, the concentration that gives 50% inhibition – came out at 6.93 ± 1.29 nM. In data set [3], the “Specifically Cell Surface Bound” value is reported as 6.33 ± 1.53 %AR/10^5 Cells and the “Specifically Internalized” value was determined as 13.74 ± 5.75 %AR/10^5 Cells. The “Lipophilicity logDpH 7.4 n-octanol/PBS” value in data set [4] was -2.07 ± 0.06.

In [2], `O=C(O)CCC(NC(=O)NC(CCCCNC(=O)C(Cc1ccc2ccccc2c1)NC(=O)C1CCC(CNC(=O)C(CCCCNC(=O)CN2CCN(CC(=O)O)CCN(CC(=O)O)CCN(CC(=O)O)CC2)NC(=O)C(CCC(=O)O)NC(=O)C(CCC(=O)O)NC(=S)Nc2ccc3c(c2)C(=O)OC32c3ccc(O)cc3Oc3cc(O)ccc32)CC1)C(=O)O)C(=O)O` (stereo not drawn) [PSMA-926, Glu-urea-Lys-2-Nal-Chx-Lys(DOTA)-E2-Fluorescein] ({FITC}-EEK(DOTA)[X1][2Nal]-X2; configuration not given here) had a Ki of 7.16 ± 2.63 nM and an IC50 of 8.59 ± 2.57 nM. Besides, in data set [3], the “Specifically Cell Surface Bound” value was 10.12 ± 4.85 %AR/10^5 Cells and the “Specifically Internalized” value is given as 11.86 ± 5.31 %AR/10^5 Cells. Moreover, in [4], the “Lipophilicity logDpH 7.4 n-octanol/PBS” value was -2.13 ± 0.03.

In data set [2], `O=C(O)CCC(NC(=O)NC(CCCCNC(=O)C(Cc1ccc2ccccc2c1)NC(=O)C1CCC(CNC(=O)C(CCCCNC(=O)CN2CCN(CC(=O)O)CCN(CC(=O)O)CCN(CC(=O)O)CC2)NC(=S)Nc2ccc3c(c2)C(=O)OC32c3ccc(O)cc3Oc3cc(O)ccc32)CC1)C(=O)O)C(=O)O` (stereo not drawn) [PSMA-924, Glu-urea-Lys-2-Nal-Chx-Lys(DOTA)-Fluorescein] registered an inhibition constant Ki of 3.87 ± 1.76 nM and an IC50 of 4.64 ± 1.23 nM. Further, in data set [3], the “Specifically Cell Surface Bound” value is 1.11 ± 0.81 %AR/10^5 Cells and the “Specifically Internalized” value was 1.11 ± 0.94 %AR/10^5 Cells. Besides, the “Lipophilicity logDpH 7.4 n-octanol/PBS” value in data set [4] was -2.38 ± 0.07.

In data set [2], `O=C(O)CCC(NC(=O)NC(CCCCNC(=O)C(Cc1ccc2ccccc2c1)NC(=O)C1CCC(CNC(=O)C(CCCCNC(=O)CN2CCN(CC(=O)O)CCN(CC(=O)O)CCN(CC(=O)O)CC2)NC(=O)C(CCC(=O)O)NC(=S)Nc2ccc3c(c2)C(=O)OC32c3ccc(O)cc3Oc3cc(O)ccc32)CC1)C(=O)O)C(=O)O` (stereo not drawn) [PSMA-925, Glu-urea-Lys-2-Nal-Chx-Lys(DOTA)-E1- Fluorescein] yielded an inhibition constant (Ki) of 6.77 ± 3.66 nM and an IC50 of 8.12 ± 3.59 nM. Moreover, in data set [3], the “Specifically Cell Surface Bound” value came out at 2.67 ± 0.95 %AR/10^5 Cells and the “Specifically Internalized” value came out at 3.03 ± 2.17 %AR/10^5 Cells. Further, in data set [4], the “Lipophilicity logDpH 7.4 n-octanol/PBS” value is -2.05 ± 0.02.

Regarding “[^68Ga]Ga-Glu-urea-Lys-(HE)3-HBED-CC-IRDye800CW”, in data set [5], the “tumor enhancement after dye conjugation” value was “significantly higher tumor enhancement”.

`O=C([O-])CN1CCN(CC(=O)[O-])CCN(CC(=O)NCC2CCC(C(=O)NC(Cc3ccc4ccccc4c3)C(=O)NCCCCC(NC(=O)NC(CCC(=O)O)C(=O)O)C(=O)O)CC2)CCN(CC(=O)[O-])CC1.[177Lu+3]` (stereo not drawn) [[^177Lu]Lu-PSMA-617]: in data set [6], the “patients with PSA decline greater than 50%” value is given as “half of the patients” and the “patients with PSA decline greater than 80%” value is reported as 27%. For the same molecule, in data set [7], the overall survival entry is “significantly improves overall survival” and the “tolerability of the treatment regimen” value is reported as “very well-tolerated”.

With `O=C(O)CCC(NC(=O)NC(CCCCNC(=O)C(Cc1ccc2ccccc2c1)NC(=O)C1CCC(CNC(=O)C(CCCCNC(=S)Nc2ccc3c(c2)C(=O)OC32c3ccc(O)cc3Oc3cc(O)ccc32)NC(=O)C(CCC(=O)O)NC(=O)C(CCC(=O)O)NC(=O)CN2CCN(CC(=O)O)CCN(CC(=O)O)CCN(CC(=O)O)CC2)CC1)C(=O)O)C(=O)O` (stereo not drawn) [PSMA-923, Glu-urea-Lys-2-Nal-Chx-Lys(Fluorescein)-E2-DOTA] ({DOTA}-EEK(FITC)[X1][2Nal]-X2; configuration not given here), in data set [2], the affinity corresponds to a Ki of 5.95 ± 1.99 nM and the half-inhibitory concentration (IC50) turned out to be 7.14 ± 1.95 nM. Besides, in data set [3], the “Specifically Cell Surface Bound” value turned out to be 9.82 ± 0.67 %AR/10^5 Cells and the “Specifically Internalized” value came to 21.55 ± 9.24 %AR/10^5 Cells. Further, in data set [4], the “Lipophilicity logDpH 7.4 n-octanol/PBS” value is -2.16 ± 0.04.

As for `O=C(O)CCC(NC(=O)NC(CCCCNC(=O)C(Cc1ccc2ccccc2c1)NC(=O)C1CCC(CNC(=O)C(CCCCNC(=S)Nc2ccc3c(c2)C(=O)OC32c3ccc(O)cc3Oc3cc(O)ccc32)NC(=O)CN2CCN(CC(=O)O)CCN(CC(=O)O)CCN(CC(=O)O)CC2)CC1)C(=O)O)C(=O)O` (stereo not drawn) [PSMA-921, Glu-urea-Lys-2-Nal-Chx-Lys(Fluorescein)-DOTA], in data set [2], the Ki stood at 4.03 ± 0.95 nM and the IC50 was 4.83 ± 0.93 nM. Further, in data set [3], the “Specifically Cell Surface Bound” value amounted to 7.06 ± 3.32 %AR/10^5 Cells and the “Specifically Internalized” value was 15.82 ± 6.18 %AR/10^5 Cells. Further, the “Lipophilicity logDpH 7.4 n-octanol/PBS” value in [4] is given as -2.36 ± 0.03.

As to “[^68Ga]Ga-Glu-urea-Lys-HBED-CC-IRDye800CW”, the “tumor enhancement after dye conjugation” value in data set [5] was “significantly higher tumor enhancement”.

As for `O=C([O-])CN1CCN(CC(=O)[O-])CCN(CC(=O)NCC2CCC(C(=O)NC(Cc3ccc4ccccc4c3)C(=O)NCCCCC(NC(=O)NC(CCC(=O)O)C(=O)O)C(=O)O)CC2)CCN(CC(=O)[O-])CC1.[68Ga+3]` (stereo not drawn) [[^68Ga]Ga-PSMA-617], the tumor uptake in data set [5] (1 h p.i.) is 8.47 ± 4.09 % ID/g. The “logDpH 7.4” value in data set [8] is listed as “–2.00”. Further, in data set [9], the cell surface binding is recorded as 11.40 ± 6.60 %ID/10^5 LNCaP cells and the specific internalization is 16.17 ± 3.66 %ID/10^5 LNCaP cells.
